Measured values reported in patent US4508663A, “Process for preparing thiosulfenamide derivatives of N-phosphonomethylglycinonitriles” (Monsanto Company, priority 1983, dated 1985).

Columns and labels:
Assay in all cases: post-emergence herbicidal activity, greenhouse
Format in all cases: in vivo
[1] = tested on: Barnyardgrass
Procedure, shortened: (§1)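 Plants grown from seed or perennial propagules in greenhouse soil pans were sprayed at two to three weeks with compound solution or suspension containing about 0.4% emulsifier, at the stated application rates. Injury relative to untreated controls was scored at approximately two and four weeks after treatment on a post-emergence activity index.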

[2] = tested on: Canada Thistle; conditions: Table I, 4 WAT
Procedure, shortened: as §1

[3] = tested on: Cocklebur
Procedure, shortened: as §1

[4] = tested on: Crabgrass; conditions: Table II
Procedure, shortened: as §1

[5] = tested on: Downy Brome
Procedure, shortened: as §1

[6] = tested on: Hemp Sesbania; conditions: Table II
Procedure, shortened: as §1

[7] = tested on: Johnsongrass; conditions: Table I, 4 WAT
Procedure, shortened: as §1

[8] = tested on: Lambsquarters
Procedure, shortened: as §1

[9] = tested on: Morningglory
Procedure, shortened: as §1

[10] = tested on: Panicum Spp; conditions: Table II
Procedure, shortened: as §1

[11] = tested on: Quackgrass; conditions: Table I, 4 WAT
Procedure, shortened: as §1

[12] = tested on: Rice; conditions: Table II
Procedure, shortened: as §1

[13] = tested on: Smartweed; conditions: Table I, 4 WAT
Procedure, shortened: as §1

[14] = tested on: Sorghum; conditions: Table II
Procedure, shortened: as §1

[15] = tested on: Soybean; conditions: Table II
Procedure, shortened: as §1

[16] = tested on: Sugar Beet; conditions: Table II
Procedure, shortened: as §1

[17] = tested on: Velvetleaf
Procedure, shortened: as §1

[18] = tested on: Wheat; conditions: Table II
Procedure, shortened: as §1

[19] = tested on: Wild Buckwheat; conditions: Table II
Procedure, shortened: as §1

[20] = tested on: Yellow Nutsedge; conditions: Table I, 4 WAT
Procedure, shortened: as §1

CC(C)SSN(CC#N)CP(=O)(Oc1ccccc1)Oc1ccccc1 [VI, Phosphonic acid, [[(cyanomethyl)[(1-methylethyl)-dithio]amino]methyl]-, diphenyl ester]
post-emergence herbicidal activity index ([1]; Table I, 4 WAT, 5.6 kg/h): 2 (50-74% control) | post-emergence herbicidal activity index ([1]; Table I, 4 WAT, 11.2 kg/h): 2 (50-74% control) | post-emergence herbicidal activity index ([1]; Table II, 2 WAT, 1.12 kg/h): 1 (25-49% control) | post-emergence herbicidal activity index ([1]; Table II, 2 WAT, 5.6 kg/h): 2 (50-74% control) | post-emergence herbicidal activity index ([1]; Table II, 4 WAT, 0.28 kg/h): 0 (0-24% control) | post-emergence herbicidal activity index ([1]; Table II, 4 WAT, 1.12 kg/h): 0 (0-24% control) | post-emergence herbicidal activity index ([1]; Table II, 4 WAT, 5.6 kg/h): 3 (75-99% control) | post-emergence herbicidal activity index ([2]; 5.6 kg/h): 2 (50-74% control) | post-emergence herbicidal activity index ([2]; 11.2 kg/h): 2 (50-74% control) | post-emergence herbicidal activity index ([3]; Table I, 4 WAT, 5.6 kg/h): 2 (50-74% control) | post-emergence herbicidal activity index ([3]; Table I, 4 WAT, 11.2 kg/h): 2 (50-74% control) | post-emergence herbicidal activity index ([3]; Table II, 2 WAT, 1.12 kg/h): 1 (25-49% control) | post-emergence herbicidal activity index ([3]; Table II, 2 WAT, 5.6 kg/h): 2 (50-74% control) | post-emergence herbicidal activity index ([3]; Table II, 4 WAT, 0.28 kg/h): 0 (0-24% control) | post-emergence herbicidal activity index ([3]; Table II, 4 WAT, 1.12 kg/h): 1 (25-49% control) | post-emergence herbicidal activity index ([3]; Table II, 4 WAT, 5.6 kg/h): 3 (75-99% control) | post-emergence herbicidal activity index ([4]; 2 WAT, 1.12 kg/h): 1 (25-49% control) | post-emergence herbicidal activity index ([4]; 2 WAT, 5.6 kg/h): 3 (75-99% control) | post-emergence herbicidal activity index ([4]; 4 WAT, 0.28 kg/h): 1 (25-49% control) | post-emergence herbicidal activity index ([4]; 4 WAT, 1.12 kg/h): 1 (25-49% control) | post-emergence herbicidal activity index ([4]; 4 WAT, 5.6 kg/h): 3 (75-99% control) | post-emergence herbicidal activity index ([5]; Table I, 4 WAT, 5.6 kg/h): 2 (50-74% control) | post-emergence herbicidal activity index ([5]; Table I, 4 WAT, 11.2 kg/h): 3 (75-99% control) | post-emergence herbicidal activity index ([5]; Table II, 2 WAT, 1.12 kg/h): 0 (0-24% control) | post-emergence herbicidal activity index ([5]; Table II, 2 WAT, 5.6 kg/h): 2 (50-74% control) | post-emergence herbicidal activity index ([5]; Table II, 4 WAT, 0.28 kg/h): 0 (0-24% control) | post-emergence herbicidal activity index ([5]; Table II, 4 WAT, 1.12 kg/h): 0 (0-24% control) | post-emergence herbicidal activity index ([5]; Table II, 4 WAT, 5.6 kg/h): 2 (50-74% control) | post-emergence herbicidal activity index ([6]; 2 WAT, 1.12 kg/h): 0 (0-24% control) | post-emergence herbicidal activity index ([6]; 2 WAT, 5.6 kg/h): 1 (25-49% control) | post-emergence herbicidal activity index ([6]; 4 WAT, 0.28 kg/h): 0 (0-24% control) | post-emergence herbicidal activity index ([6]; 4 WAT, 1.12 kg/h): 0 (0-24% control) | post-emergence herbicidal activity index ([6]; 4 WAT, 5.6 kg/h): 1 (25-49% control) | post-emergence herbicidal activity index ([7]; 5.6 kg/h): 3 (75-99% control) | post-emergence herbicidal activity index ([7]; 11.2 kg/h): 3 (75-99% control) | post-emergence herbicidal activity index ([8]; Table I, 4 WAT, 5.6 kg/h): 3 (75-99% control) | post-emergence herbicidal activity index ([8]; Table I, 4 WAT, 11.2 kg/h): 4 (100% control) | post-emergence herbicidal activity index ([8]; Table II, 2 WAT, 1.12 kg/h): 3 (75-99% control) | post-emergence herbicidal activity index ([8]; Table II, 2 WAT, 5.6 kg/h): 3 (75-99% control) | post-emergence herbicidal activity index ([8]; Table II, 4 WAT, 0.28 kg/h): 0 (0-24% control) | post-emergence herbicidal activity index ([8]; Table II, 4 WAT, 1.12 kg/h): 3 (75-99% control) | post-emergence herbicidal activity index ([8]; Table II, 4 WAT, 5.6 kg/h): 3 (75-99% control) | post-emergence herbicidal activity index ([9]; Table I, 4 WAT, 5.6 kg/h): 2 (50-74% control) | post-emergence herbicidal activity index ([9]; Table I, 4 WAT, 11.2 kg/h): 2 (50-74% control) | post-emergence herbicidal activity index ([9]; Table II, 2 WAT, 1.12 kg/h): 1 (25-49% control) | post-emergence herbicidal activity index ([9]; Table II, 2 WAT, 5.6 kg/h): 1 (25-49% control) | post-emergence herbicidal activity index ([9]; Table II, 4 WAT, 0.28 kg/h): 0 (0-24% control) | post-emergence herbicidal activity index ([9]; Table II, 4 WAT, 1.12 kg/h): 0 (0-24% control) | post-emergence herbicidal activity index ([9]; Table II, 4 WAT, 5.6 kg/h): 1 (25-49% control) | post-emergence herbicidal activity index ([10]; 2 WAT, 1.12 kg/h): 0 (0-24% control) | post-emergence herbicidal activity index ([10]; 2 WAT, 5.6 kg/h): 1 (25-49% control) | post-emergence herbicidal activity index ([10]; 4 WAT, 0.28 kg/h): 0 (0-24% control) | post-emergence herbicidal activity index ([10]; 4 WAT, 1.12 kg/h): 0 (0-24% control) | post-emergence herbicidal activity index ([10]; 4 WAT, 5.6 kg/h): 1 (25-49% control) | post-emergence herbicidal activity index ([11]; 5.6 kg/h): 0 (0-24% control) | post-emergence herbicidal activity index ([11]; 11.2 kg/h): 1 (25-49% control) | post-emergence herbicidal activity index ([12]; 2 WAT, 1.12 kg/h): 0 (0-24% control) | post-emergence herbicidal activity index ([12]; 2 WAT, 5.6 kg/h): 0 (0-24% control) | post-emergence herbicidal activity index ([12]; 4 WAT, 0.28 kg/h): 0 (0-24% control) | post-emergence herbicidal activity index ([12]; 4 WAT, 1.12 kg/h): 0 (0-24% control) | post-emergence herbicidal activity index ([12]; 4 WAT, 5.6 kg/h): 0 (0-24% control) | post-emergence herbicidal activity index ([13]; 5.6 kg/h): 2 (50-74% control) | post-emergence herbicidal activity index ([13]; 11.2 kg/h): 2 (50-74% control) | post-emergence herbicidal activity index ([14]; 2 WAT, 1.12 kg/h): 1 (25-49% control) | post-emergence herbicidal activity index ([14]; 2 WAT, 5.6 kg/h): 2 (50-74% control) | post-emergence herbicidal activity index ([14]; 4 WAT, 0.28 kg/h): 0 (0-24% control) | post-emergence herbicidal activity index ([14]; 4 WAT, 1.12 kg/h): 1 (25-49% control) | post-emergence herbicidal activity index ([14]; 4 WAT, 5.6 kg/h): 3 (75-99% control) | post-emergence herbicidal activity index ([15]; 2 WAT, 1.12 kg/h): 0 (0-24% control) | post-emergence herbicidal activity index ([15]; 2 WAT, 5.6 kg/h): 1 (25-49% control) | post-emergence herbicidal activity index ([15]; 4 WAT, 0.28 kg/h): 0 (0-24% control) | post-emergence herbicidal activity index ([15]; 4 WAT, 1.12 kg/h): 0 (0-24% control) | post-emergence herbicidal activity index ([15]; 4 WAT, 5.6 kg/h): 1 (25-49% control) | post-emergence herbicidal activity index ([16]; 2 WAT, 1.12 kg/h): 0 (0-24% control) | post-emergence herbicidal activity index ([16]; 2 WAT, 5.6 kg/h): 0 (0-24% control) | post-emergence herbicidal activity index ([16]; 4 WAT, 0.28 kg/h): 0 (0-24% control) | post-emergence herbicidal activity index ([16]; 4 WAT, 1.12 kg/h): 0 (0-24% control) | post-emergence herbicidal activity index ([16]; 4 WAT, 5.6 kg/h): 1 (25-49% control) | post-emergence herbicidal activity index ([17]; Table I, 4 WAT, 5.6 kg/h): 1 (25-49% control) | post-emergence herbicidal activity index ([17]; Table I, 4 WAT, 11.2 kg/h): 2 (50-74% control) | post-emergence herbicidal activity index ([17]; Table II, 2 WAT, 1.12 kg/h): 0 (0-24% control) | post-emergence herbicidal activity index ([17]; Table II, 2 WAT, 5.6 kg/h): 1 (25-49% control) | post-emergence herbicidal activity index ([17]; Table II, 4 WAT, 0.28 kg/h): 0 (0-24% control) | post-emergence herbicidal activity index ([17]; Table II, 4 WAT, 1.12 kg/h): 1 (25-49% control) | post-emergence herbicidal activity index ([17]; Table II, 4 WAT, 5.6 kg/h): 2 (50-74% control) | post-emergence herbicidal activity index ([18]; 2 WAT, 1.12 kg/h): 1 (25-49% control) | post-emergence herbicidal activity index ([18]; 2 WAT, 5.6 kg/h): 1 (25-49% control) | post-emergence herbicidal activity index ([18]; 4 WAT, 0.28 kg/h): 0 (0-24% control) | post-emergence herbicidal activity index ([18]; 4 WAT, 1.12 kg/h): 0 (0-24% control) | post-emergence herbicidal activity index ([18]; 4 WAT, 5.6 kg/h): 1 (25-49% control) | post-emergence herbicidal activity index ([19]; 2 WAT, 1.12 kg/h): 0 (0-24% control) | post-emergence herbicidal activity index ([19]; 2 WAT, 5.6 kg/h): 1 (25-49% control) | post-emergence herbicidal activity index ([19]; 4 WAT, 0.28 kg/h): 0 (0-24% control) | post-emergence herbicidal activity index ([19]; 4 WAT, 1.12 kg/h): 0 (0-24% control) | post-emergence herbicidal activity index ([19]; 4 WAT, 5.6 kg/h): 1 (25-49% control) | post-emergence herbicidal activity index ([20]; 5.6 kg/h): 0 (0-24% control) | post-emergence herbicidal activity index ([20]; 11.2 kg/h): 3 (75-99% control)
